We go through five substances from US12173344B2, “Fluorescent fusion based heterologous peptide production” (Stellenbosch University, priority 2020, dated 2024).

Where no end group is shown, it is not given here.

Holding throughout (assay type): cell-based
One series deals with Lactobacillus sakei. The series can be described thus: Antimicrobial activity (clear zones on plates) against Lactobacillus sakei. Here is the method:
(§1) For initial antimicrobial efficacy testing, both GFP-fused and non-GFP-fused pLanthipeptides were loaded (GFP-pNisin and GFP-pPep5) and cleaved directly in wells with trypsin (5 μg/mL for GFPpNisin) or thrombin (3 U/100 μL for GFP-pPep5). Antimicrobial activity was evaluated against Lactobacillus sakei for nisin and against S. carnosus for GFP-pPep5. Plates were incubated at 30° C. overnight until visible clear zones were observed. Lactobacillus sakei was cultured in MRS broth or agar and S. carnosus was cultured in Mueller Hinton Broth or agar.
(§2) GFP-pLanthipeptides were cleaved at 37° C. for 4 h and 20 h, with thrombin or hNisP. Heterologously expressed hNisP was added to concentrations of 0.01 ng/μL, 5 ng/μL, 10 ng/μL, 50 ng/μL and 70 ng/μL. Thrombin was added at 0.75 U, 4.5 U, 3 U and 6 U. Cleavage reactions were performed in 100 μL reactions and protein concentrations of GFP-pLanthipeptides were adjusted to final concentrations of 1 mg/ml with the exception of GFP-pPep5Th which was adjusted to 0.9 mg/mL. Cleavage reactions were stopped by the addition of protease inhibitors. Antimicrobial activity was evaluated against Lb. sakei and S. carnosus for GFP-pNisin (30 μL) and GFP-pPep5 (80 μL), respectively. Plates were incubated at 30° C. overnight until visible clear zones were observed. Samples were separated using SDS-PAGE.

Series [1] concerns Listeria monocytogenes EDG-e. The series can be described thus: Antilisterial activity, spot plate and SDS-PAGE agar overlay. The method, then:
While the respective bacteriocins were fused to GFP and produced a fluorescent complex, it was important to determine that antimicrobial activity was due to the liberated bacteriocin. Antimicrobial activity of plantaricin 423 and mundticin ST4SA was assessed against Listeria monocytogenes EDG-e grown on Brain Heart Infusion media (BHI) containing […] chloramphenicol. The spot plate method was performed on solid medium (1% w/v agar) seeded with Listeria monocytogenes EDG-e. SDS-PAGE separations were assayed for activity by casting the polyacrylamide gel in an agar bilayer seeded with Listeria monocytogenes EDG-e. Before casting, the poly acrylamide gels were fixed for 20 min in a 25% isopropanol, 10% acetic acid fixing solution and then rinsed 3×15 min with sterile ultra-pure water.
Cleavage parameters were optimized using a modified method from that supplied by the manufacturer. The WELQut-to-Sample ratios were set to 1:100, 1:50, 1:25, 1:5 (v/v) for 50 μL samples of GFP-PlaX and GFP-MunX, respectively, and diluted to a final volume of 250 μL in WELQut cut buffer. The approximate corresponding units of WELQ to 466.5 μg of GFP-PlaX was 2.5 U, 5 U, 10 U and 50 U respectively. The approximate corresponding units of WELQ to 547.5 μg of GFP-MunX was 2.5 U, 5 U, 10 U and 50 U respectively. Cleavage reactions were incubated at 28° C., and 50 μL samples were collected at 2 h, 4 h, 8 h, and 16 h, respectively. Cleavage was assessed by the spot plate method using BHI solid medium (1% w/v agar) seeded with Listeria monocytogenes EGD-e.
Mundticin ST4SA and plantaricin 423 were cleaved from one millilitre of His-tag purified GFP-MunX and GFP-PlaX, respectively, under optimal cleavage conditions. Cleavage reactions were purified using high performance liquid chromatography (HPLC), single peaks were spot tested for antilisterial activity.

Another series concerns S. carnosus. The series can be described thus: Antimicrobial activity (clear zones on plates) against S. carnosus. The conditions noted are these: thrombin and hNisP, 4 h and 20 h cleavage. Here is the method:
as §1, §2

The test system of a further series is Erythrocyte. The series can be described thus: Erythrocyte lysis (haemolysis) assay. The conditions noted are these: fusion not cleaved. An excerpt: FIG. 18: Top Panel-SDS-PAGE of purified GFP-LLO and LLO used in erythrocyte lysis assay. Left: Stained gel. Right: Fluorescent image of GFP-LLO and GFP, L: Ladder (NEB ladder #P7712), 1: Uncut GFP-LLO, 2: Cleaved, IMAS purified and desalted LLO. A: GFP-LLO, B: LLO. Bottom Panel-Erythrocyte haemolysis following GFP-LLO exposure at varying pH. Relative haemoglobin absorbance was collected at 540 nm, values expressed as percentage of positive control, mean±SEM (n=3), Analysis via t-test concluded *=p<0.001, ***=p<0.0001 vs Untreated.

The mark [2] stands for this setting: after cleavage / liberation of the core peptide, expression at 26° C.

Regarding “HispNisin: His-tagged precursor nisin, no fluorescent fusion (MSTKDFNLDLVSVSKKDSGASPRITSISLCTPGCKTGALMGCNMKTATCHCSIHVSK; cysteine pairing not given here; also: His tag, not shown in chain; UniProt P13068 1-57, looked up)”, the Antimicrobial activity entry in the series with Lactobacillus sakei (setting [2]) is “decrease”; with Lactobacillus sakei (after cleavage with trypsin, expression at 18° C., soluble and insoluble fractions), “highest activity”; with Lactobacillus sakei (after cleavage with trypsin, expression at 37° C.), “substantial loss in activity”.
On to “GFP-MunX: GFP fused to mature mundticin ST4SA with WELQut cleavage site (SEQ ID NO:32)”, for which the “Antilisterial activity at the band location” value in series [1] (SDS-PAGE gel overlay after WELQut cleavage, zone at the size/location of the named species) is “zones of antilisterial activity”. Also, the Antilisterial activity result was “clear zones” in series [1] (WELQut cleaved samples, SDS-PAGE gel overlay) and “did not show antilisterial activity” in series [1] (uncleaved fusion protein, spot plate). Further, the Specific activity entry in series [1] (cleaved fusion protein, compared with the other GFP-bacteriocin) is on record as “higher specific activity”.
“Pep5: lanthipeptide liberated from GFP-pPep5 by thrombin or hNisP (TAGPAIRASVKQCQKTLKATRLFTVSCKGKNGCK; also: lanthipeptide (lantibiotic) thioether rings, not placed; UniProt P19578 27-60, looked up)”: the “Effect on antimicrobial activity of increasing concentration and cleavage time” value in the series with S. carnosus is on record as “detrimental effect”.
Consider “GFP-pNisin: N-terminal His tagged GFP with WELQut site fused to precursor nisin (SEQ ID NO:28/30)”, for which the Antimicrobial activity result with Lactobacillus sakei (setting [2]) is “highest activity”; in the series on Lactobacillus sakei (after cleavage with trypsin, expression at a range of temperatures, induction times and IPTG concentrations) it was “activity was detected”; with Lactobacillus sakei (uncleaved sample), “absent”.
In the case of GFP-LLO, the “Activity of LLO while fused to fluorescent partner” value with Erythrocyte is on record as “still has activity”.
